Assay [1] has as its system DU145 (Prostate Cancer). As to the kind of experiment: Cellular growth inhibition assay (MTT), DU145. Conditions: Homo sapiens. Type of assay: cell-based. On the procedure:
(§1) For screening purposes, compounds were diluted in 96 well plates at a concentration of 20 μM. Plates were warmed at 37° C. for 30 minutes before assay.
(§2) K562 (Chronic Myeloid Leukemia), PC3 (Prostate Cancer), and DU145 (Prostate Cancer) were obtained from the American Type Culture Collection (ATCC). K562 was grown in RPMI, with 10% FBS with Glutamx added. DU145 cells were cultured in DMED, with 10% FBS and Glutamx and MEM non-essential amino acids added. PC3 cells were grown in F12K medium, with 10% FBS and Glutamx and MEM non-essential amino acids added. All cells were grown at 37° C. in 5% CO2.
(§3) Cell suspensions were prepared by harvesting cells from culture. (Cells used in this test should be in later log phase growth and high viability.) Cells were diluted in correct growth medium to 1.1× final concentration (from 50000 cell/mL to 200,000 cell/mL, depending on cell line).
(§4) Compounds to be tested were added (10 μL, 10× final concentration) to a flat bottom 96-well plate. The cellular suspension (90 μL per well) was added, and the plate incubated for 40 hr at 37° C., 5% CO2. MTT (20 μL per well, 5 mg/mL in PBS) was added and the plates were returned to the incubator for a further 6 hours. Lysis buffer (100 μL per well, 10% SDS, 0.01N HCl) was added and the plate stored in the incubator overnight. The plate was then read at 590 nm.

The test system of assay [2] is PC3 (Prostate Cancer). As to the kind of experiment: Cellular growth inhibition assay (MTT), PC3. Type of assay: cell-based. Conditions: Table 1, 40 hr incubation. On the procedure:
as §1, §2, §3, §4

In assay [3] the test system is K562 (Chronic Myeloid Leukemia). As to the kind of experiment: Cellular growth inhibition assay (MTT), K562. Type of assay: cell-based. Conditions: Homo sapiens, Table 1, 40 hr incubation. The procedure:
as §1, §2, §3, §4

For assay [4], the target named is T1, TelJak2 (BaF3 TELJAK cells, TEL/Jak2 fusion) (Homo sapiens, UniProt O60674).
T1 construct: The regions encompassing the kinase domain of JAK2 (nucleotides 2994-3914); expressed in transfected cells; host or cells: BaF3 cells bearing the pTET-off plasmid, transfected with pTELJAK2 (pTRE2 vector); the other entry of the earlier key: ETV6 (P41212, Transcription factor ETV6)
The assay can be described thus: Cellular growth inhibition assay (MTT), BaF3 TEL:JAK2 cell line. Type of assay: cell-based. The procedure:
as §1
(§5) The coding region encompassing nucleotides 1-487 of TEL was amplified by PCR using the oligonucleotides 5TEL (5′-GGAGGATCCTGATCTCTCTCGCTGTGAGAC-3′) (SEQ ID NO: 1) and 3TEL (5′-AGGC GTCGACTTCTTCTTGATGGTTCTG-3′) (SEQ ID NO: 2) and U937 mRNA as template. A BamH I site was incorporated into the 5TEL primer, and a Sal I site was incorporated into the 3TEL primer. The regions encompassing the kinase domain of JAK2 (nucleotides 2994-3914; JAK2F 5′-ACGC GTCGACGGTGCCTTTGAAGACCGGGAT-3 (SEQ ID NO: 3); JAK2R 5′-ATAGTTTAGCGGCCGCTCAGAATGAAGGTCATTT-3′) (SEQ ID NO: 4) and JAK3 (nucleotides 2520-3469; JAK3F 5′-GAAGTCGACTATGCCTGCCAAGACCCCACGATCTT-3′ (SEQ ID NO: 5); JAK3R 5′-GGATCTAGACTATGAAAAGGACAGGGAGTGGTGTTT-3′ (SEQ ID NO: 6)) were generated by PCR using Taq DNA polymerase (Gibco/BRL) and U937 mRNA as template. A Sal I site was incorporated into the forward primer of JAK2 and JAK3, a Not I site was incorporated into the JAK2 reverse primer and a Xba I site was added to the reverse primer of JAK3.
(§6) A TEL/Jak2 fusion was generated by digestion of the TELPCR product with BamH I/Sa1 I, digestion of the JAK2 PCR product with Sa1 I/Not I followed by ligation and subcloning into the mammalian expression Vector pTRE 2 (Clontech) digested with BamH I-Not I (pTELJAK2). For JAK3 Sa1 I/Not I cleaved kinase domain PCR product was ligated with BamH I/Sa1 I cleaved TELproduct followed by ligation into BamH I/Not I cleaved pTRE2 (pTELJAK3).
(§7) The growth factor dependent myelomonocytic cell line BaF3 bearing the pTET-off plasmid (Clontech) was transfected with either pTELJAK2 or pTELJAK3 and the cells selected for factor independent growth. BaF 3 wild type cells were cultured in DMEM 10% FCS, 10% WEHI 3B conditioned medium. BaF3 TELJAK cells were cultured in DMEM 10% Tet-System Approved FBS (without WEHI 3B conditioned medium).
as §3, §4

Assay [5] concerns the target T2, TelJak3 (BaF3 TELJAK cells, TEL/JAK3 fusion) (Homo sapiens, UniProt P52333).
T2 construct: For JAK3 Sa1 I/Not I cleaved kinase domain PCR product was ligated with BamH I/Sa1 I cleaved TELproduct; expressed in transfected cells; host or cells: BaF3 cells bearing the pTET-off plasmid, transfected with pTELJAK3 (pTRE2 vector); the other entry of the earlier key: ETV6 (P41212, Transcription factor ETV6)
As to the kind of experiment: Cellular growth inhibition assay (MTT), BaF3 TEL:JAK3 cell line. Type of assay: cell-based. On the procedure: as §1, §5, §6, §7, §3, §4

The subject of assay [6] is Tubulin (microtubule protein). The assay can be described thus: Tubulin assay (turbidometric assay of microtubule assembly). In kind it is biochemical. Conditions: 50 μM, absorbance at 340 nm, 37° C. The procedure:
Turbidometric assays of microtubule assembly were performed by incubating microtubule protein in cuvettes at 37° C. in a thermostatically controlled spectrophotometer measuring the change in absorbance at 340 nm over time. The microtubule protein was incubated with the each test compound at 0° C. and polymerisation was initiated by addition of 1 mM GTP, prior to heating to 37° C.

Where [7] appears, read: DU-145, Table 1, 40 hr incubation.
Where [8] appears, read: DU-145, Table 2, 40 hr incubation.

As usually defined, the inhibition is the change of the read-out against control, counted positive when it falls.

SMILES strings stand for the structures.

T1 sequence (O60674 with tags, fused parts or gaps): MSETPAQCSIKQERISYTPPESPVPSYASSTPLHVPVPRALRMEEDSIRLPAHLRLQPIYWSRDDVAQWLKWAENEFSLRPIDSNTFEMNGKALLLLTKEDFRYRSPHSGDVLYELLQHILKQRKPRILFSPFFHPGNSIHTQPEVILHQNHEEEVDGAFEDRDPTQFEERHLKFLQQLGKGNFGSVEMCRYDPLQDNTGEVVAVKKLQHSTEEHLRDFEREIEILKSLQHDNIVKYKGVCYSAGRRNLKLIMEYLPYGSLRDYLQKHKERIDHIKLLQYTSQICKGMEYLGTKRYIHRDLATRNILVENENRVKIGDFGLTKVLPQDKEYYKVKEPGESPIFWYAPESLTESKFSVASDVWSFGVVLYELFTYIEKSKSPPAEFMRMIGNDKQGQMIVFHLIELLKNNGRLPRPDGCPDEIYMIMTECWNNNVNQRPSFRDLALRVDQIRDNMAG
T2 sequence (P52333 with tags, fused parts or gaps): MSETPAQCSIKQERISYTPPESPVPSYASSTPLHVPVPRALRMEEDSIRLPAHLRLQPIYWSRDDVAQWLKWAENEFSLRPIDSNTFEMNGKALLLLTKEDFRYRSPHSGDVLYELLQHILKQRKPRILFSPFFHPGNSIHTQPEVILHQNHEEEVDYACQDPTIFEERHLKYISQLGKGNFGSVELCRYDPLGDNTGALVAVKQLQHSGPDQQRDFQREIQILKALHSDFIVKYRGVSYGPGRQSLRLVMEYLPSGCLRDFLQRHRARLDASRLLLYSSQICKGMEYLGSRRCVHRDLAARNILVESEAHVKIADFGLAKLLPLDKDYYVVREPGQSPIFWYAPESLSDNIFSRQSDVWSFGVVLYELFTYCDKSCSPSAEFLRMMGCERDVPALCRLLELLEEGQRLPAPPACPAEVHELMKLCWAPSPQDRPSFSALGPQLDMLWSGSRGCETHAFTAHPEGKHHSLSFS

For the compound `CCCC(Nc1cncc(-c2ccc(NC(=O)NCCCN3CCOCC3)c(OC)c2)n1)c1cccnc1` (stereo not drawn), the inhibition at 20 µM in assay [1] (setting [7]) is above 50%; in assay [2], above 50%; in assay [3] it was above 50%; in assay [4] (Table 1, 40 hr incubation) it was above 50%; in assay [5] (Table 1, 40 hr incubation) it was above 50%. In addition, the “Tubulin inhibition of tubulin polymerisation” value (“Tubulin inhibition” below) in assay [6] (Table 1) was “+ (compounds which inhibited tubulin polymerisation by greater than 50% at 50 μM)”.

In the case of `CC[C@H](Nc1nc(-c2ccc(O)c(OC)c2)ncc1C)c1cccnc1`, the inhibition at 20 µM in assay [1] (setting [7]) was above 50%; in assay [2], above 50%; in assay [3], above 50%; in assay [4] (Table 1, 40 hr incubation) it was above 50%; in assay [5] (Table 1, 40 hr incubation), above 50%. The “Tubulin inhibition” value in assay [6] (Table 1) is given as “+ (compounds which inhibited tubulin polymerisation by greater than 50% at 50 μM)”.

Regarding `CCNC(=O)Nc1ccc(-c2cncc(NC(CCOC)c3ccccc3)n2)cc1OC` (stereo not drawn), the inhibition at 20 µM in assay [1] (setting [7]) was above 50%; in assay [2], above 50%; in assay [3], above 50%; in assay [4] (Table 1, 40 hr incubation), above 50%; in assay [5] (Table 1, 40 hr incubation) it was above 50%. Further, the “Tubulin inhibition” value in assay [6] (Table 1) was “+ (compounds which inhibited tubulin polymerisation by greater than 50% at 50 μM)”.

As to `CCCC(Nc1cncc(-c2ccc(NC(=O)NCC)c(C)c2)n1)c1cccnc1` (stereo not drawn), the inhibition at 20 µM in assay [1] (setting [7]) is above 50%; in assay [2] it was above 50%; in assay [3], above 50%; in assay [4] (Table 1, 40 hr incubation), above 50%; in assay [5] (Table 1, 40 hr incubation), above 50%. Besides, in assay [6] (Table 1), the “Tubulin inhibition” value is listed as “+ (compounds which inhibited tubulin polymerisation by greater than 50% at 50 μM)”.

`COc1cc(-c2cncc(NC(C)c3cccc(NC(=O)[C@H]4CCCN4)c3)n2)ccc1O` (stereo partly drawn): the inhibition at 20 µM is above 50% in assay [1] (setting [8]); above 50% in assay [4] (Table 2, 40 hr incubation); above 50% in assay [5] (Table 2, 40 hr incubation). The “Tubulin inhibition” value in assay [6] (Table 2) is given as “+ (compounds which inhibited tubulin polymerisation by greater than 50% at 50 μM)”.

As to `COc1cc(-c2cncc(NC(C)c3cccc(NC(=O)c4cccnc4)c3)n2)ccc1O` (stereo not drawn) [drawing 124], the “Tubulin inhibition” value in assay [6] (Table 2) is “+ (compounds which inhibited tubulin polymerisation by greater than 50% at 50 μM)”.

For the compound `COc1cc(-c2cncc(NC(C)c3ccc(-c4cccnc4)cc3)n2)ccc1O` (stereo not drawn), the inhibition at 20 µM is above 50% in assay [1] (setting [8]); above 50% in assay [4] (Table 2, 40 hr incubation); above 50% in assay [5] (Table 2, 40 hr incubation). The “Tubulin inhibition” value in assay [6] (Table 2) is reported as “+ (compounds which inhibited tubulin polymerisation by greater than 50% at 50 μM)”.

In the case of `CC[C@H](Nc1cncc(-c2ccc(O)c(OC)c2)n1)c1ccccc1`, the inhibition at 20 µM in assay [1] (setting [8]) is above 50%; in assay [4] (Table 2, 40 hr incubation), above 50%; in assay [5] (Table 2, 40 hr incubation), above 50%. The “Tubulin inhibition” value in assay [6] (Table 2) was “+ (compounds which inhibited tubulin polymerisation by greater than 50% at 50 μM)”.

With `CCCC(Nc1cncc(-c2ccc(NC(=O)NCCCN(CC)CC)c(OC)c2)n1)c1cccnc1` (stereo not drawn), the inhibition at 20 µM in assay [1] (setting [7]) is below 50%; in assay [2], below 50%; in assay [3], below 50%; in assay [4] (Table 1, 40 hr incubation), above 50%; in assay [5] (Table 1, 40 hr incubation), above 50%.

`CCCC(Nc1cncc(-c2ccc(OCCCN3CCOCC3)c(OC)c2)n1)c1ccccc1` (stereo not drawn): the inhibition at 20 µM in assay [1] (setting [7]) is below 50%; in assay [2], above 50%; in assay [3], above 50%; in assay [4] (Table 1, 40 hr incubation), above 50%; in assay [5] (Table 1, 40 hr incubation) it was above 50%.

`CCCC(Nc1cncc(-c2ccc(OCCCCN3CCOCC3)c(OC)c2)n1)c1ccccc1` (stereo not drawn): the inhibition at 20 µM in assay [1] (setting [7]) is below 50%; in assay [2] it was below 50%; in assay [3], above 50%; in assay [4] (Table 1, 40 hr incubation) it was above 50%; in assay [5] (Table 1, 40 hr incubation) it was above 50%.

In the case of `CCCC(Nc1cncc(-c2ccc(C(=O)NCCN(C)C)cc2)n1)c1ccccc1` (stereo not drawn), the inhibition at 20 µM is below 50% in assay [1] (setting [7]); below 50% in assay [2]; below 50% in assay [3]; above 50% in assay [4] (Table 1, 40 hr incubation); above 50% in assay [5] (Table 1, 40 hr incubation).

With `COc1cc(-c2cncc(N[C@@H](C)c3ccccc3)n2)ccc1O`, the inhibition at 20 µM was above 50% in assay [1] (setting [8]); above 50% in assay [4] (Table 2, 40 hr incubation); above 50% in assay [5] (Table 2, 40 hr incubation). Moreover, in assay [6] (Table 2), the “Tubulin inhibition” value is listed as “+ (compounds which inhibited tubulin polymerisation by greater than 50% at 50 μM)”.

Regarding `COc1cc(-c2cncc(NC(C)c3cccc(NC(=O)c4cccnc4)c3)n2)ccc1O` (stereo not drawn) [drawing 127], the inhibition at 20 µM in assay [1] (setting [8]) was above 50%; in assay [4] (Table 2, 40 hr incubation), above 50%; in assay [5] (Table 2, 40 hr incubation), above 50%. Besides, the “Tubulin inhibition” value in assay [6] (Table 2) is recorded as “+ (compounds which inhibited tubulin polymerisation by greater than 50% at 50 μM)”.

Consider `CCCC(Nc1cncc(-c2ccc(CN(C)C)cc2)n1)c1ccccc1` (stereo not drawn), for which the inhibition at 20 µM is below 50% in assay [1] (setting [7]); below 50% in assay [2]; above 50% in assay [3]; above 50% in assay [4] (Table 1, 40 hr incubation); above 50% in assay [5] (Table 1, 40 hr incubation).

On to `COc1cc(-c2nc(N[C@H](C)c3ccccc3)nnc2C)ccc1O`, for which the inhibition at 20 µM is below 50% in assay [1] (setting [7]); below 50% in assay [2]; above 50% in assay [3]; above 50% in assay [4] (Table 1, 40 hr incubation); above 50% in assay [5] (Table 1, 40 hr incubation).

Turning to `COc1cc(-c2nc(N[C@H](C)c3ccccc3)nnc2C)cc(OC)c1OC`, the inhibition at 20 µM was below 50% in assay [1] (setting [7]); below 50% in assay [2]; below 50% in assay [3]; above 50% in assay [4] (Table 1, 40 hr incubation); above 50% in assay [5] (Table 1, 40 hr incubation).

Turning to `CCCC(Nc1cncc(-c2ccc(CN3CCC(O)CC3)cc2)n1)c1ccccc1` (stereo not drawn), the inhibition at 20 µM was below 50% in assay [1] (setting [7]); below 50% in assay [2]; above 50% in assay [3]; above 50% in assay [4] (Table 1, 40 hr incubation); above 50% in assay [5] (Table 1, 40 hr incubation).

On to `CCCC(Nc1cncc(-c2ccc(NC(=O)N3CCN(C)CC3)c(OC)c2)n1)c1cccnc1` (stereo not drawn), for which the inhibition at 20 µM in assay [1] (setting [7]) is below 50%; in assay [2] it was above 50%; in assay [3], below 50%; in assay [4] (Table 1, 40 hr incubation), above 50%; in assay [5] (Table 1, 40 hr incubation) it was above 50%.

The record behind these values is patent publication US9732046B2, “Substituted 1,2,4-triazines as tubulin inhibitors” (YM Biosciences Australia Pty Ltd., priority 2003, dated 2017).
